The results in this text go back to ChEMBL document CHEMBL1201862, “PubChem BioAssay data set” (2004).

Where “and” joins values, the source holds several entries; their conditions need not be identical. Equal entries are not always repeated.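 Values below derive from 48-hour exposures of cells grown in 96-well plates, with endpoints linearly interpolated between the two concentrations bracketing the appropriate inhibition level. Abbreviation: GI50, concentration required for 50% inhibition of growth.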 Calls of active or inactive are those of the source. No stated cut-off is given here; in the data, active = GI50 up to about 1.1 µM and inactive = higher.

Test in all cases: NCI anticancer screen, dose series, 48 h
The subject of assay [1] is ACHN.
In assay [2] the test system is CAKI-1.
The test system of assay [3] is EKVX.
The subject of assay [4] is HCC 2998.
The subject of assay [5] is HCT-15.
The subject of assay [6] is HL-60.
Assay [7] concerns HT-29.
For assay [8], the system named is KM12.
For assay [9], the system named is LOX IMVI.
Assay [10] concerns M14.
The test system of assay [11] is NCI-H460.
The test system of assay [12] is OVCAR-3.
Assay [13] concerns OVCAR-5.
The test system of assay [14] is PC-3.
Assay [15] has as its system RXF 393.
The subject of assay [16] is SK-MEL-2.
In assay [17] the test system is SNB-75.
Assay [18] concerns SR.
Assay [19] deals with UACC-257.

`COc1ccc(C2=NN(C(=N)S)C(c3ccccc3)C2)cc1` (stereo not given): the GI50 in assay [1] was 36.9 µM (inactive); in [2], 40.6 µM (inactive); in assay [3], 35.9 µM (inactive); in assay [4] it was 44.8 µM (inactive); in [5] it was 33.6 µM; in assay [6], 18.2 µM (inactive). Moreover, the GI50 in assay [7] was 38.9 µM (inactive); in assay [8] it was 35.7 µM (inactive); in assay [9], 38.3 µM (inactive); in [10] it was 41 µM (inactive); in [11], 30 µM (inactive); in [12], 35.6 µM (inactive). Moreover, the GI50 is 58.2 µM (inactive) in assay [13]; 34 µM (inactive) in [14]; 24.4 µM (inactive) in [15]; 29.4 µM (inactive) in assay [16]; 29 µM (inactive) in [17]; 23.2 µM (inactive) in [18]. Moreover, in assay [19], the GI50 was 29.2 µM (inactive).
On to `O=C(C[C@@H]1NCCC[C@H]1O)Cn1cnc2cc(Br)c(Cl)cc2c1=O`, for which the GI50 in assay [1] was 0.0233 µM (active); in assay [2] it was 0.0583 µM (active); in assay [3], 0.0244 µM (active); in assay [4] it was 0.0458 µM (active); in assay [5], 0.0276 µM; in assay [6], 0.033 µM (active). Further, the GI50 was 0.022 µM (active) in assay [7]; 0.0171 µM (active) in assay [8]; < 0.01 µM (active) in [9]; 0.0178 µM (active) in assay [10]; 0.0127 µM (active) in assay [11]; < 0.0176 µM (active) in assay [12]. For the same compound, the GI50 is < 0.0135 µM (active) in assay [13]; 0.0351 µM (active) in [14]; 0.0277 µM (active) in assay [15]; 0.0148 µM (active) in assay [16]; 0.0403 µM (active) in [17]; 0.0146 µM (active) in assay [18]. Moreover, in assay [19], the GI50 is 0.0336 µM (active).
For `O=C1Nc2cccc(Cl)c2/C1=C\c1c(-c2ccccc2)nc2n1CCS2`, the GI50 in [1] is 16.4 µM (inactive); in assay [2] it was 22.9 µM (inactive); in assay [3], 26.1 µM (inactive); in assay [4], 21.3 µM (inactive); in assay [5], 18.9 µM; in assay [6], 16.3 µM (inactive). Also, the GI50 in [7] was 20.3 µM (inactive); in assay [8], 20.8 µM (inactive); in assay [9], 16 µM (inactive); in [10] it was 20.9 µM (inactive); in assay [11] it was 17.8 µM (inactive); in assay [12], 19.4 µM (inactive). Besides, the GI50 is 22.8 µM (inactive) in [13]; 18.6 µM (inactive) in [14]; 19.6 µM (inactive) in assay [15]; 20.3 µM (inactive) in assay [16]; 24 µM (inactive) in assay [17]; 19.8 µM (inactive) in assay [18]. Also, in assay [19], the GI50 is 21.4 µM (inactive).
For `CC(C)CNC(=O)c1c(NC(=O)c2ccccc2)sc2[nH]c(=O)n(-c3ccccc3)c(=O)c12`, the GI50 in assay [1] was 13.8 µM (inactive); in assay [2] it was > 42.1 µM (inactive); in [3], 70.6 µM (inactive); in assay [4], > 100 µM (inactive); in [5], > 100 µM; in assay [6], 68.9 µM (inactive). The GI50 in assay [7] was > 100 µM (inactive); in [8], > 100 µM (inactive); in [9] it was > 100 µM (inactive); in [10], 91.2 µM (inactive); in [11], > 100 µM (inactive); in assay [12] it was > 100 µM (inactive). Besides, the GI50 in assay [13] is > 100 µM (inactive); in [14], > 100 µM (inactive); in assay [15], 16.6 µM (inactive); in assay [16] it was 27.5 µM (inactive); in [17], 17.8 µM (inactive); in assay [18] it was 49.4 µM (inactive). In addition, the GI50 in assay [19] was > 100 µM (inactive).
In the case of `O=CNc1ccccc1OCCOc1ccccc1NC=O`, the GI50 is > 100 µM (inactive) in assay [1]; > 100 µM (inactive) in [2]; > 100 µM (inactive) in [3]; > 100 µM (inactive) in assay [4]; > 100 µM in [5]; > 100 µM (inactive) in assay [6]. The GI50 in assay [7], in [8], in assay [9], in assay [10], in [11] and in assay [12] was > 100 µM (inactive) each time. Further, the GI50 in assay [13], in [14], in assay [15], in [16], in [17] and in assay [18] was > 100 µM (inactive) throughout. Further, the GI50 in assay [19] is > 100 µM (inactive).
On to `COc1ccc(-c2c(C#N)c(N)n(C3OCC(OC(C)=O)C(OC(C)=O)C3OC(C)=O)c(=S)c2C#N)cc1` (stereo not given), for which the GI50 was 48.9 µM (inactive) and 40.6 µM (inactive) in assay [1]; 38.5 µM (inactive) and 23.1 µM (inactive) in [2]; 34.7 µM (inactive) and 22.6 µM (inactive) in assay [3]; 37.8 µM (inactive) and 26.6 µM (inactive) in assay [4]; 73.1 µM and 62.5 µM in [5]; 17.4 µM (inactive) and 15.2 µM (inactive) in assay [6]. Besides, the GI50 was 41.2 µM (inactive) and 44.5 µM (inactive) in assay [7]; 53.7 µM (inactive) and 50.1 µM (inactive) in assay [8]; 30 µM (inactive) and 34 µM (inactive) in [9]; 53 µM (inactive) and 49.3 µM (inactive) in assay [10]; 44.1 µM (inactive) and 36.4 µM (inactive) in [11]; 31.8 µM (inactive) and 23.4 µM (inactive) in [12]. In addition, the GI50 in assay [13] was 45.7 µM (inactive) and 43.8 µM (inactive); in [14], 32.9 µM (inactive) and 34.4 µM (inactive); in assay [15], 19.1 µM (inactive) and 33.6 µM (inactive); in assay [16] it was 22.3 µM (inactive) and 40.7 µM (inactive); in assay [17] it was 31.8 µM (inactive) and 21 µM (inactive); in assay [18], 14.3 µM (inactive) and 14 µM (inactive). Further, in assay [19], the GI50 is > 100 µM (inactive).
On to `COc1ccc2nc(NC(=O)/C(C#N)=C/c3ccccc3)sc2c1`, for which the GI50 in [1] was 35.6 µM (inactive); in assay [2], 31 µM (inactive); in assay [3], 38.4 µM (inactive); in assay [4], 44.3 µM (inactive); in assay [5] it was 24.7 µM; in assay [6], 9.35 µM (inactive). For the same compound, the GI50 is 46.7 µM (inactive) in assay [7]; > 41.7 µM (inactive) in assay [8]; 39.4 µM (inactive) in assay [9]; > 54.1 µM (inactive) in assay [10]; 38 µM (inactive) in [11]; 18.4 µM (inactive) in [12]. In addition, the GI50 in assay [13] was > 100 µM (inactive); in [14], > 61 µM (inactive); in [15], > 61.4 µM (inactive); in assay [16], > 100 µM (inactive); in [17], > 45.7 µM (inactive); in assay [18] it was 4.43 µM (inactive). In addition, the GI50 in [19] is 27 µM (inactive).
As to `O=C(O)CCO/N=C1/C(=C2/C(=O)Nc3ccccc32)Nc2ccccc21`, the GI50 in assay [1] is 15.2 µM (inactive); in [2], 4.97 µM (inactive); in [3] it was 11.2 µM (inactive); in [4] it was 15.3 µM (inactive); in assay [5], 6.58 µM; in [6], 23.7 µM (inactive). The GI50 was 25 µM (inactive) in [7]; 1.16 µM (inactive) in assay [8]; 12.4 µM (inactive) in [9]; 19.6 µM (inactive) in assay [10]; 17.6 µM (inactive) in assay [11]; 11.7 µM (inactive) in assay [12]. In addition, the GI50 in [13] was 40.9 µM (inactive); in assay [14], 25.4 µM (inactive); in assay [15], 3.61 µM (inactive); in [16], 7.18 µM (inactive); in assay [17] it was 13.8 µM (inactive); in [18], 12 µM (inactive). The GI50 in [19] is 39.5 µM (inactive).
Turning to `Cc1ccnc2nc(-c3ccc(Cl)cc3)cc(O)c12`, the GI50 in [1] is > 24.9 µM (inactive); in assay [2], 6.68 µM (inactive); in [3], 29.7 µM (inactive); in assay [4] it was > 27.4 µM (inactive); in assay [5], 2.32 µM; in [6], 1.58 µM (inactive). The GI50 in assay [7] was 3.23 µM (inactive); in assay [8] it was 3.16 µM (inactive); in assay [9], 4.13 µM (inactive); in assay [10], 8.63 µM (inactive); in assay [11] it was 3.85 µM (inactive); in [12], 4.89 µM (inactive). For the same compound, the GI50 in assay [13] was > 100 µM (inactive); in assay [14], 2.89 µM (inactive); in assay [15], 8.45 µM (inactive); in assay [16], 72.4 µM (inactive); in [17] it was 2.17 µM (inactive); in [18], 1.41 µM (inactive). In [19], the GI50 is > 100 µM (inactive).
Regarding `COc1ccc2nc3ccccc3c(NCCCCN(CCCl)CCCl)c2c1`, the GI50 in [1] is 0.041 µM (active); in [2] it was 0.0253 µM (active); in assay [3], 0.535 µM (active); in assay [4], 1.04 µM (active); in assay [5] it was 0.244 µM; in [6] it was 0.0186 µM (active). In addition, the GI50 in assay [7] was 0.043 µM (active); in [8], 0.128 µM (active); in [9], 0.0596 µM (active); in [10] it was 0.22 µM (active); in [11], < 0.0352 µM (active); in assay [12] it was 0.118 µM (active). Besides, the GI50 in [13] was 0.507 µM (active); in assay [14], 0.316 µM (active); in [15] it was 0.0212 µM (active); in [16], 0.703 µM (active); in assay [17] it was 0.197 µM (active); in assay [18], 0.04 µM (active). Also, in [19], the GI50 was 1.05 µM (active).
